pIC50: −log10 of the molar value.

In assay [1] the target is T1, MAGL (Mus musculus (Mouse), UniProt O35678). Description: In vitro competitive activity-based protein profiling (mouse brain membrane fraction or cell lysates), MAGL band. The conditions noted are these: mouse proteome; for inhibition at 1 µM: read-out: MAGL % Inh 1 μM (mouse); for pIC50: competitive ABPP. It counts as biochemical. The procedure:
In Vitro Competitive Activity-Based Protein Profiling.
Proteomes (mouse brain membrane fraction or cell lysates) (50 μL, 1.0 mg/mL total protein concentration) were preincubated with varying concentrations of inhibitors at 37° C. After 30 min, FP—Rh (1.0 μL, 50 μM in DMSO) was added and the mixture was incubated for another 30 min at 37° C. Reactions were quenched with SDS loading buffer (50 μL-4×) and run on SDS-PAGE.

Assay [2] concerns the target T2, ABHD6 (Mus musculus (Mouse), UniProt Q8R2Y0). Description: In vitro competitive activity-based protein profiling (mouse brain membrane fraction or cell lysates), ABHD6 band. It counts as biochemical. The note with it: mouse proteome; for inhibition at 1 µM: read-out: ABHD6 % Inh 1 μM (mouse); for pIC50: competitive ABPP. The procedure, abridged:
(§1)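 Competitive ABPP: proteome 1.0 mg/mL protein + inhibitor, 30 min, 37° C; FP-Rh probe (stock 50 μM in DMSO) added, 30 min, 37° C; SDS quench, SDS-PAGE, fluorescent band intensity read.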

Assay [3] deals with T3, FAAH (Mus musculus (Mouse), UniProt O08914). Description: In vitro competitive activity-based protein profiling (mouse brain membrane fraction or cell lysates), FAAH band. It counts as biochemical. The conditions noted are these: mouse proteome; for inhibition at 1 µM: read-out: FAAH % Inh 1 μM (mouse); for pIC50: competitive ABPP. The procedure, abridged: as §1
T3 sequence (O08914 whole entry): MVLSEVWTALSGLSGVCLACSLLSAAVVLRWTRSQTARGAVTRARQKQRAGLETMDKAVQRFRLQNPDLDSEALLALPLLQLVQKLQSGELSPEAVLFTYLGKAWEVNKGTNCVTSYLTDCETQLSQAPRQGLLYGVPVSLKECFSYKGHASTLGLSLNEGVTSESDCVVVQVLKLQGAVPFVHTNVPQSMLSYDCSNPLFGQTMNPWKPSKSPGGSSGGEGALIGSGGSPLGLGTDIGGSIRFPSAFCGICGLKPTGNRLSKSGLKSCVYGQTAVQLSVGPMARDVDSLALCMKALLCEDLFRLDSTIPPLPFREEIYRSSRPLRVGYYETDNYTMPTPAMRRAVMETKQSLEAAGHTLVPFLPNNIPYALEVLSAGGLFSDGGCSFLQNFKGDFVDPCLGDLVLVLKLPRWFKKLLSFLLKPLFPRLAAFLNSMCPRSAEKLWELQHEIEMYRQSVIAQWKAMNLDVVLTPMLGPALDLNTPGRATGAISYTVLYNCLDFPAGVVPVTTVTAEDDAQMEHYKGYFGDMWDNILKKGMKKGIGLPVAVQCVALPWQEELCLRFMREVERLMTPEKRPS
The target of assay [4] is T1, MAGL. In words: Mouse brain proteomes from inhibitor treated mice (oral gavage, sacrificed 4 h after administration, ABPP analysis). The note with it: 5 mg/kg oral gavage. It counts as in vivo, mouse (C57Bl/6J). Here is the method:
(§2) Preparation of Mouse Brain Proteomes from Inhibitor Treated Mice.
(§3) Inhibitors were administered to wild-type C57Bl/6J by oral gavage in a vehicle, e.g. PEG400/Ethanol/PBS (7/2/1). Each animal was sacrificed 4 h following administration and brain proteomes were prepared and analyzed according to previously established methods (See Niphakis, M. J., et al. (2011) ACS Chem. Neurosci. and Long, J. Z., et al. Nat. Chem. Biol. 5:37-44). Data from this assay is shown in Table 2 (% inhibition at 5 mg/kg).

The target of assay [5] is T3, FAAH. In words: Mouse brain proteomes from inhibitor treated mice (oral gavage, sacrificed 4 h after administration, ABPP analysis), FAAH. The conditions noted are these: 5 mg/kg oral gavage. It counts as in vivo, mouse (C57Bl/6J). Here is the method: as §2, §3
The target of assay [6] is T2, ABHD6. In words: Mouse brain proteomes from inhibitor treated mice (oral gavage, sacrificed 4 h after administration, ABPP analysis), ABHD6. It counts as in vivo, mouse (C57Bl/6J). The note with it: 5 mg/kg oral gavage. The procedure: as §2, §3

T1 sequence (O35678 whole entry): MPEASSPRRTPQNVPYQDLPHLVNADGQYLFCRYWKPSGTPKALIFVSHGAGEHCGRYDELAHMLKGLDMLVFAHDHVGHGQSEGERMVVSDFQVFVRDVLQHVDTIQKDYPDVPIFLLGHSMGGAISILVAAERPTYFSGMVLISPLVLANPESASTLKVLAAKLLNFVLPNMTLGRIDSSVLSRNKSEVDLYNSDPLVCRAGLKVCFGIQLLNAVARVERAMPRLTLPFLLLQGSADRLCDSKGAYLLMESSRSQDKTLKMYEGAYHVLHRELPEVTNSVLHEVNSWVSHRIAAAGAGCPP
T2 sequence (Q8R2Y0 whole entry): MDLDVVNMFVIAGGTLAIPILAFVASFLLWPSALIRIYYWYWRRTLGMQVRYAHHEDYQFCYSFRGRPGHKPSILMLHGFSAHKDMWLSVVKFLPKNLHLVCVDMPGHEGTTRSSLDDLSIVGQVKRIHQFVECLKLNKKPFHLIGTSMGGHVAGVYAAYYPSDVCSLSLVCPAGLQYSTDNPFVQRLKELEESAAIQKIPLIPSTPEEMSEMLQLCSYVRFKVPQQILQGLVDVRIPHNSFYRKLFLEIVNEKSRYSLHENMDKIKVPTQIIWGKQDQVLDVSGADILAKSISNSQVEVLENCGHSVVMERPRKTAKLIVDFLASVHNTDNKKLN

A word on the pIC50: it is −log10 of the IC50, conventionally taken in molar units. Low readings indicate a high IC50, high ones a low IC50. In the case of `O=C(OC(C(F)(F)F)C(F)(F)F)N1CCC2(CCCN2Cc2cc(Cl)cc(N3CCCC3)c2)CC1` [Example 34, 1,1,1,3,3,3-Hexafluoropropan-2-yl 1-(3-chloro-5-(pyrrolidin-1-yl)benzyl)-1,8-diazaspiro[4.5]decane-8-carboxylate], the inhibition at 1 µM was greater than 75% on MAGL [1], less than 25% at ABHD6 [2] and less than 25% on FAAH [3]. Further, the pIC50 is greater than 7.00 on MAGL [1], less than 6.00 at ABHD6 [2] and less than 6.00 at FAAH [3]. Besides, on MAGL [4], the “MAGL % Inh 5 mg/kg (mouse)” value is listed as “### (### is ≥75%)”. At FAAH [5], the “FAAH % Inh 5 mg/kg (mouse)” value is “# (# is <25%)”. Also, on ABHD6 [6], the “ABHD6 % Inh 5 mg/kg (mouse)” value is on record as “# (# is <25%)”.

With `O=C(OC(C(F)(F)F)C(F)(F)F)N1CCC2(CCCN2Cc2cc(OC(F)(F)F)cc(N3CCOCC3)c2)CC1` [Example 37, 1,1,1,3,3,3-Hexafluoropropan-2-yl 1-(3-morpholino-5-(trifluoromethoxy)benzyl)-1,8-diazaspiro[4.5]decane-8-carboxylate], the figures for the inhibition at 1 µM at MAGL [1], on ABHD6 [2] and on FAAH [3] were greater than 75%, less than 25% and less than 25%, respectively. For the same compound, the pIC50 at MAGL [1] was greater than 7.00; on ABHD6 [2], less than 6.00; on FAAH [3], less than 6.00. Besides, the “MAGL % Inh 5 mg/kg (mouse)” value at MAGL [4] was “### (### is ≥75%)”. Besides, the “FAAH % Inh 5 mg/kg (mouse)” value on FAAH [5] is reported as “# (# is <25%)”. The “ABHD6 % Inh 5 mg/kg (mouse)” value on ABHD6 [6] was “# (# is <25%)”.

Turning to `CS(=O)(=O)N1CCN(c2cc(Cl)ccc2CN2CCCC23CCN(C(=O)OC(C(F)(F)F)C(F)(F)F)CC3)CC1` [Example 100, 1,1,1,3,3,3-Hexafluoropropan-2-yl 1-(4-chloro-2-(4-(methylsulfonyl)piperazin-1-yl)benzyl)-1,8-diazaspiro[4.5]decane-8-carboxylate], the inhibition at 1 µM was greater than 75% at MAGL [1], less than 25% at ABHD6 [2] and less than 25% on FAAH [3]. Also, the negative-log IC50 (pIC50) at MAGL [1] is greater than 7.00; at ABHD6 [2], less than 6.00; on FAAH [3] it was less than 6.00. For the same compound, the “MAGL % Inh 5 mg/kg (mouse)” value at MAGL [4] is recorded as “### (### is ≥75%)”. In addition, on FAAH [5], the “FAAH % Inh 5 mg/kg (mouse)” value was “# (# is <25%)”. The “ABHD6 % Inh 5 mg/kg (mouse)” value at ABHD6 [6] is listed as “# (# is <25%)”.

Consider `O=C(OC(C(F)(F)F)C(F)(F)F)N1CCC2(CCCN2Cc2cccc(N3CCCCC3)c2Cl)CC1` [Example 80, 1,1,1,3,3,3-Hexafluoropropan-2-yl 1-(2-chloro-3-(piperidin-1-yl)benzyl)-1,8-diazaspiro[4.5]decane-8-carboxylate], for which the inhibition at 1 µM is greater than 75% on MAGL [1], less than 25% at ABHD6 [2] and less than 25% on FAAH [3]. Besides, the negative logarithm of the IC50 (pIC50) on MAGL [1] was greater than 7.00; on ABHD6 [2] it was less than 6.00; on FAAH [3] it was less than 6.00. Further, the “MAGL % Inh 5 mg/kg (mouse)” value at MAGL [4] is recorded as “### (### is ≥75%)”. For the same compound, the “FAAH % Inh 5 mg/kg (mouse)” value on FAAH [5] is reported as “## (## is equal to or greater than 25% but less than 75%)”. At ABHD6 [6], the “ABHD6 % Inh 5 mg/kg (mouse)” value is on record as “## (## is equal to or greater than 25% but less than 75%)”.

On to `CS(=O)(=O)N1CCN(c2cc(C(F)(F)F)ccc2CN2CCCC23CCN(C(=O)OC(C(F)(F)F)C(F)(F)F)CC3)CC1` [Example 89, 1,1,1,3,3,3-Hexafluoropropan-2-yl 1-(2-(4-(methylsulfonyl)piperazin-1-yl)-4-(trifluoromethyl)benzyl)-1,8-diazaspiro[4.5]decane-8-carboxylate], for which the inhibition at 1 µM was greater than 75% on MAGL [1], less than 25% at ABHD6 [2] and less than 25% at FAAH [3]. Also, the pIC50 on MAGL [1] was greater than 7.00; on ABHD6 [2] it was less than 6.00; at FAAH [3] it was less than 6.00. The “MAGL % Inh 5 mg/kg (mouse)” value on MAGL [4] is recorded as “# (# is <25%)”. For the same compound, on FAAH [5], the “FAAH % Inh 5 mg/kg (mouse)” value was “# (# is <25%)”. For the same compound, the “ABHD6 % Inh 5 mg/kg (mouse)” value at ABHD6 [6] was “# (# is <25%)”.

With `O=C(OC(C(F)(F)F)C(F)(F)F)N1CCC2(CCN(Cc3ccc(Cl)cc3N3CCOCC3)C2)CC1` [Example 21, 1,1,1,3,3,3-Hexafluoropropan-2-yl 2-(4-chloro-2-morpholinobenzyl)-2,8-diazaspiro[4.5]decane-8-carboxylate], the inhibition at 1 µM at MAGL [1] is greater than 75%; at ABHD6 [2], no less than 75%; on FAAH [3], less than 25%. The pIC50 is greater than 7.00 on MAGL [1], 6.00 to 7.00 at ABHD6 [2] and less than 6.00 on FAAH [3]. For the same compound, on MAGL [4], the “MAGL % Inh 5 mg/kg (mouse)” value is “### (### is ≥75%)”. The “FAAH % Inh 5 mg/kg (mouse)” value on FAAH [5] is listed as “# (# is <25%)”. The “ABHD6 % Inh 5 mg/kg (mouse)” value at ABHD6 [6] is recorded as “## (## is equal to or greater than 25% but less than 75%)”.

In the case of `O=C(OC(C(F)(F)F)C(F)(F)F)N1CCC2(CCCN2Cc2ccc(OCCF)cc2)CC1` [Example 31, 1,1,1,3,3,3-Hexafluoropropan-2-yl 1-(4-(2-fluoroethoxy)benzyl)-1,8-diazaspiro[4.5]decane-8-carboxylate], the figures for the inhibition at 1 µM on MAGL [1], on ABHD6 [2] and at FAAH [3] were greater than 75%, less than 25% and less than 25%, respectively. In addition, the pIC50 at MAGL [1] is greater than 7.00; on ABHD6 [2], less than 6.00; at FAAH [3] it was less than 6.00. In addition, at MAGL [4], the “MAGL % Inh 5 mg/kg (mouse)” value is given as “### (### is ≥75%)”. For the same compound, the “FAAH % Inh 5 mg/kg (mouse)” value at FAAH [5] is “# (# is <25%)”. The “ABHD6 % Inh 5 mg/kg (mouse)” value on ABHD6 [6] is “## (## is equal to or greater than 25% but less than 75%)”.

`Cc1c(CN2CCCC23CCN(C(=O)OC(C(F)(F)F)C(F)(F)F)CC3)cccc1N1CC2CCC(C1)O2` [Example 86, 1,1,1,3,3,3-Hexafluoropropan-2-yl 1-(3-(8-oxa-3-azabicyclo[3.2.1]octan-3-yl)-2-methylbenzyl)-1,8-diazaspiro[4.5]decane-8-carboxylate]: the inhibition at 1 µM at MAGL [1] is greater than 75%; on ABHD6 [2], less than 25%; on FAAH [3], less than 25%. Moreover, the pIC50 at MAGL [1] was greater than 7.00; at ABHD6 [2] it was less than 6.00; at FAAH [3], less than 6.00. For the same compound, the “MAGL % Inh 5 mg/kg (mouse)” value on MAGL [4] is reported as “### (### is ≥75%)”. Further, at FAAH [5], the “FAAH % Inh 5 mg/kg (mouse)” value is listed as “# (# is <25%)”. Besides, the “ABHD6 % Inh 5 mg/kg (mouse)” value at ABHD6 [6] was “# (# is <25%)”.

For the compound `O=C(OC(C(F)(F)F)C(F)(F)F)N1CCC2(CCCN2Cc2ccc3c(c2)COC3)CC1` [Example 151, 1,1,1,3,3,3-Hexafluoropropan-2-yl 1-((1,3-dihydroisobenzofuran-5-yl)methyl)-1,8-diazaspiro[4.5]decane-8-carboxylate], the inhibition at 1 µM is greater than 75% at MAGL [1], less than 25% at ABHD6 [2] and less than 25% at FAAH [3]. Besides, the pIC50 on MAGL [1] is greater than 7.00; at ABHD6 [2], less than 6.00; at FAAH [3], less than 6.00. Moreover, the “MAGL % Inh 5 mg/kg (mouse)” value on MAGL [4] was “### (### is ≥75%)”. For the same compound, the “FAAH % Inh 5 mg/kg (mouse)” value on FAAH [5] is “## (## is equal to or greater than 25% but less than 75%)”. In addition, the “ABHD6 % Inh 5 mg/kg (mouse)” value on ABHD6 [6] is on record as “## (## is equal to or greater than 25% but less than 75%)”.

For the origin of these results see patent US10030020B2, “Spirocycle compounds and methods of making and using same” (Abide Therapeutics, Inc., priority 2016, dated 2018).
